What was measured:
[1] = molecular target: T1, GatFABF24–183 (pseudo-wild-type, full-length GatFAB) (Saccharomyces cerevisiae, UniProt Q03557); test: glutaminase assay, […]Gln, TLC; format: biochemical; conditions: 50 μM [14C]L-glutamine; Glu-tRNA^Gln, ATP, 12 mM MgCl2, pH 7.2, 37°C; labelled compound
T1 construct: gene HER2; heterotrimer; E. coli host; with Glutamyl-tRNA(Gln) amidotransferase subunit B, mitochondrial; Glutamyl-tRNA(Gln) amidotransferase subunit F, mitochondrial
T1 sequence (Q03557 1-464): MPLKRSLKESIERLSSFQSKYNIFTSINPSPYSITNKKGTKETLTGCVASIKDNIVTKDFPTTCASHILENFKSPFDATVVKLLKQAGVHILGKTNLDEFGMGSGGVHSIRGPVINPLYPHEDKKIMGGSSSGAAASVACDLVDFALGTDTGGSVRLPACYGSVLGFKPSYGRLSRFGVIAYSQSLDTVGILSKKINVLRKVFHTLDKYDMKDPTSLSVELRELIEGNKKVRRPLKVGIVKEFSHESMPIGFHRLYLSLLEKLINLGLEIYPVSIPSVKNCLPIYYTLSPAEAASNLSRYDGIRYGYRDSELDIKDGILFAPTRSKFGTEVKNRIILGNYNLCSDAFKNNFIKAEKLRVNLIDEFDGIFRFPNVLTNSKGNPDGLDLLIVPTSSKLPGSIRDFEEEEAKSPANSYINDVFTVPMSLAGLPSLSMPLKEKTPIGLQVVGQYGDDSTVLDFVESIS
T1 sequence (P33893 16-541 partner): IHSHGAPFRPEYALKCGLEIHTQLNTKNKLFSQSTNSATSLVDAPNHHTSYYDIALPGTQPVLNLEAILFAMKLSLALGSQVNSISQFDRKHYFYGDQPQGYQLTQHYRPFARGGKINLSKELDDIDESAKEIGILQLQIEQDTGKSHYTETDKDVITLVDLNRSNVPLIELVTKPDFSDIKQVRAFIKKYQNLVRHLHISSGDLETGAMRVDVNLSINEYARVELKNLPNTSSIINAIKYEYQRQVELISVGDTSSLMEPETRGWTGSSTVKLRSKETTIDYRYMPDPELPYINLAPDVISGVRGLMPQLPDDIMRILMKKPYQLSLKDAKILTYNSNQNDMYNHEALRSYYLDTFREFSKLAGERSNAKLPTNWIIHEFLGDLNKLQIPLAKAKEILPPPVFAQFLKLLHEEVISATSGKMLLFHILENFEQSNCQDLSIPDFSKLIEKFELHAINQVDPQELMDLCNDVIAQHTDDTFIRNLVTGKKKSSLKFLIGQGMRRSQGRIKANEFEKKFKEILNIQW
T1 sequence (P53260 24-183 partner): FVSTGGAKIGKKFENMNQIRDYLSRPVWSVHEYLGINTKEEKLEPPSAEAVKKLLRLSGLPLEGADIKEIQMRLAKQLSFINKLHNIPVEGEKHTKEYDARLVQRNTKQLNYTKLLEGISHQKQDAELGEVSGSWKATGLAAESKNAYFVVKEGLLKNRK

GatFABΔHY = molecular target: T2, GatFABΔHY (Saccharomyces cerevisiae, UniProt Q03557); test: X-ray crystal structure, […] Å; format: binding; conditions: 10 mM glutamine added before crystallization; GatA glutaminase site (R334, D418, near S154)
T2 construct: gene HER2; heterotrimer; E. coli host; with Glutamyl-tRNA(Gln) amidotransferase subunit B, mitochondrial; Glutamyl-tRNA(Gln) amidotransferase subunit F, mitochondrial
T2 sequence (Q03557 1-464): T1 sequence (Q03557 1-464)
T2 sequence (P33893 16-329 partner): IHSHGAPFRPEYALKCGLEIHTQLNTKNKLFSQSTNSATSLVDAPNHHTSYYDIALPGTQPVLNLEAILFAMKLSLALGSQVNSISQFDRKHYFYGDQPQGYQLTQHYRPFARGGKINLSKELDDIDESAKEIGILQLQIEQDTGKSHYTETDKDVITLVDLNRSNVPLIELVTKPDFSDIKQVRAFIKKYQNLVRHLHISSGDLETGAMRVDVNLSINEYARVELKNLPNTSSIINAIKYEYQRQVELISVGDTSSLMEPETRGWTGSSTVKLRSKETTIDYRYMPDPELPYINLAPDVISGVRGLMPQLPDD
T2 sequence (P53260 24-183 partner): T1 sequence (P53260 24-183 partner)

SMILES: NC(=O)CC[C@H](N)C(=O)O [glutamine]
- glutaminase assay, [14C]Gln, TLC [1]: reduced activities in both GatA-mediated glutamine-hydrolysis and GatB-mediated transamidation when compared to that of the full-length
- X-ray crystal structure, 2.0 Å (GatFABΔHY): the glutamine molecule is bound to the glutaminase site of GatA

Reference: article PMC4027206, “Crystal structure of Saccharomyces cerevisiae mitochondrial GatFAB reveals a novel subunit assembly in tRNA-dependent amidotransferases” (Nucleic Acids Research, 2014)
